This note sets out measurements from patent EP0037781A1, “Phenyl alcoxy propanol amines, their preparation and their use as medicines” (PIERRE FABRE S.A., priority 1980, dated 1981).

This data set can be described thus: Solubility (Solubilités) in water and dimethyl sulfoxide. Conditions: for solubility in dimethyl sulfoxide: diméthylsulfoxyde; for solubility: water, eau, read-out: Solubilités : Soluble dans l'eau. Format: physicochemical.

≈ marks a conversion by molar mass, not a printed value. Counter-ions that a name gives are not always drawn.

With `Cc1cccc(COCC(O)CNC(C)C)c1` (stereo not shown) [Exemple 1, isopropylamino-3, m-tolyl méthoxy-1 propanol-2 fumarate], the “solubility in dimethyl sulfoxide” value is on record as 15% and the solubility is 100 mg/mL.

In the case of `Cc1cccc(COCC(O)CNC(C)(C)C)c1` (stereo not shown) [Exemple 2, tertiobutvlamino-3 métatol lméthoxy-1 propanol-2 maléate], the “solubility in dimethyl sulfoxide” value is 10% and the solubility was 25 mg/mL (≈ 99.5 mM). In the case of `COc1ccccc1COCC(O)CNC(C)C` (stereo not shown) [Exemple 3, isopropylamino-3 (orthométhoxy benzyloxy) 1 propanol-2 fumarate], the “solubility in dimethyl sulfoxide” value is 15% and the solubility was 100 mg/mL. The corresponding values for `COc1ccccc1COCC(O)CNC(C)(C)C` (stereo not shown) [Exemple 4, tertiobutylamino-3 (orthométhoxy benzyloxy)-1 propanol-2 maléate] are 15% and 100 mg/mL (≈ 374 mM). Consider `COc1cccc(COCC(O)CNC(C)(C)C)c1` (stereo not shown) [Exemple 5, tertiobutylamino-3 (métaméthoxybenzyloxy)-1 propanol-2 maléate], for which the “solubility in dimethyl sulfoxide” value came to 12% and the solubility was determined as 100 mg/mL (≈ 374 mM). Regarding `COc1ccc(COCC(O)CNC(C)(C)C)cc1` (stereo not shown) [Exemple 6, tertiobutylamino-3 (paraméthoxy benzyloxy)-1 propanol-2 maléate], the “solubility in dimethyl sulfoxide” value was 20% and the solubility was found to be 100 mg/mL (≈ 374 mM).

With `CC(C)(C)NCC(O)COCc1cccc(OCc2ccccc2)c1` (stereo not shown) [Exemple 7, tertiobutylamino-3 métabenzyloxy-benzyloxy-1 propanol-2 maléate], the “solubility in dimethyl sulfoxide” value was found to be 20% and the solubility came to 2 mg/mL (≈ 5.82 mM). Consider `CC(C)NCC(O)COCc1cccc2ccccc12` (stereo not drawn) [Exemple 8, isopropylamino-3 (alpha-naphtyl méthoxy)-1 propanol-2 fumarate], for which the “solubility in dimethyl sulfoxide” value turned out to be 8% and the solubility worked out at 14 mg/mL.

`CC(C)(C)NCC(O)COCc1cccc2ccccc12` (stereo not drawn) [Exemple 9, tertiobutylamino-3 (alpha-naphtyl méthoxy)-1 propanol-2 fumarate]: the “solubility in dimethyl sulfoxide” value was found to be 15% and the solubility came to 100 mg/mL.

Consider `CC(C)NCC(O)COCCCc1ccccc1` (stereo not shown) [Exemple 10, isopropylamino-3(phényl-3 propoxy)-1 pro^panol-2 fumarate], for which the “solubility in dimethyl sulfoxide” value was found to be 12% and the solubility was 100 mg/mL. The corresponding values for `CC(C)(C)NCC(O)COCCCc1ccccc1` (stereo not shown) [Exemple 11, tertiobutylamino-3 phényl-3 propoxy)-1 propanol-2 fumarate] are 15% and 100 mg/mL.

For the compound `CC(C)(C)NCC(O)COC/C=C/c1ccccc1` (stereo not shown) [Exemple 12, tertiobutylamino-3 (phényl-3 propène-2 yl-1) oxy-1 ^propanol-2 maléate], the “solubility in dimethyl sulfoxide” value is listed as 15% and the solubility was determined as 10 mg/mL (≈ 38 mM). For `CC(C)(C)NCC(O)COC1Cc2ccccc2C1` (stereo not shown) [Exemple 14, tertiobutylamino-3 (indanyl-2 oxy)-1 propanol-2 maléate], the “solubility in dimethyl sulfoxide” value is 10% and the solubility came to 100 mg/mL (≈ 380 mM). Regarding `CC(C)NCC(O)COC1CCCc2ccccc21` (stereo not shown) [Exemple 15, isopropylamino-3 (tétrahydro 1,2,3,4 naphtyloxy-1)-1 propanol-2 fumarate], the solubility was 30 mg/mL. As for `CC(C)(C)NCC(O)COC1CCCc2ccccc21` (stereo not shown) [Exemple 16, tertiobutylamino-3 (tétrahydro 1,2,3,4 naphtoxy-1)-1 pro^panol-2 maléate], the solubility came to 20 mg/mL (≈ 72.1 mM).
